Test results reported in ChEMBL document CHEMBL3997839, “Novel conjugates of endoperoxide and 4-anilinoquinazoline as potential anticancer agents” (Bioorg Med Chem Lett, 2017).

Assays:
A549 = experiment: Antiproliferative activity against human A549 cells harboring wild type EGFR after 48 hrs by MTT assay; assay type: functional, cell-based
[1] = target: Epidermal growth factor receptor (Homo sapiens, UniProt P00533)
Description: Inhibition of recombinant human GST-tagged EGFR cytoplasmic domain (668 to 1210 residues) expressed in baculovirus expression system by Z'-Lyte assay

HCC827 = experiment: Antiproliferative activity against human HCC827 cells harboring EGFR E746_A750 deletion mutant after 48 hrs by MTT assay; assay type: functional, cell-based
[2] = target: Epidermal growth factor receptor (Homo sapiens, UniProt P00533, L858R); assay type: cell-based
Epidermal growth factor receptor (Homo sapiens, UniProt P00533, L858R), sequence (P00533 25-1210 L858R limits assumed): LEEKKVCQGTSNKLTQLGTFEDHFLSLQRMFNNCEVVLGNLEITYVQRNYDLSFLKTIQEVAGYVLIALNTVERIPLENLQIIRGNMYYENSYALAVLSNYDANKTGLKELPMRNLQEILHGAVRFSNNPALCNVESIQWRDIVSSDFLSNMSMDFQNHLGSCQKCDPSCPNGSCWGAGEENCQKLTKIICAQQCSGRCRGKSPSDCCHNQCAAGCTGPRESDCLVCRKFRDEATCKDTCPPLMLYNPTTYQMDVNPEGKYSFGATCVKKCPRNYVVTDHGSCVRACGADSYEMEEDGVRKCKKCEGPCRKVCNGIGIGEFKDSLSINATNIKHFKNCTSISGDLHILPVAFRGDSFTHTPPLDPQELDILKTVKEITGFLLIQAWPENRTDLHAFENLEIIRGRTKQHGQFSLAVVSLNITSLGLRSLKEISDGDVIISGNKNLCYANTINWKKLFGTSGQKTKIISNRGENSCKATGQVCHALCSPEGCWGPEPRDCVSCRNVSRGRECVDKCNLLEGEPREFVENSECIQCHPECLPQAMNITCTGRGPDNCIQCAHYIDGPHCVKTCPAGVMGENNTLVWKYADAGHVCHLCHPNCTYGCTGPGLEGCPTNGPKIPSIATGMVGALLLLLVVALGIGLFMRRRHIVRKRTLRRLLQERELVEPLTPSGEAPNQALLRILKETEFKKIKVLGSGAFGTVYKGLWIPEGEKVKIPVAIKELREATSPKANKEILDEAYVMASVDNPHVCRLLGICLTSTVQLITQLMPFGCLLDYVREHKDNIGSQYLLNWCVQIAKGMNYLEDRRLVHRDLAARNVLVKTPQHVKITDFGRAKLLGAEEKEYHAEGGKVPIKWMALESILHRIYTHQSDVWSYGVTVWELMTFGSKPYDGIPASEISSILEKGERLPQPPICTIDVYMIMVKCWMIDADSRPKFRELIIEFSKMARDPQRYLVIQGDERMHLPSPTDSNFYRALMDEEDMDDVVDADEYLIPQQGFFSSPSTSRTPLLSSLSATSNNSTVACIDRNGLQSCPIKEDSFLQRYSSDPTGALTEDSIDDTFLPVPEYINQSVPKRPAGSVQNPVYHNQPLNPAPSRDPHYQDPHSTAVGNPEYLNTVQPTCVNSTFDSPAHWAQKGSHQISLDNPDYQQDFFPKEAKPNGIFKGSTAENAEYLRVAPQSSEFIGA

A-431 = experiment: Antiproliferative activity against EGFR over-expressing human A431 cells after 48 hrs by MTT assay; assay type: functional, cell-based
[3] = target: Epidermal growth factor receptor (Homo sapiens, UniProt P00533, L858R/T790M); experiment: Inhibition of recombinant human GST-tagged EGFR L858R/T790M double mutant cytoplasmic domain (668 to 1210 residues) expressed in baculovirus expression system by Z'-Lyte assay
NCI-H1975 = experiment: cells; assay type: functional, cell-based, Homo sapiens
L02 = experiment: Antiproliferative activity against human HL7702 cells after 48 hrs by MTT assay; assay type: ADME, cell-based; settings: Homo sapiens, L02, 48 h

Epidermal growth factor receptor (Homo sapiens, UniProt P00533), sequence (P00533 whole entry): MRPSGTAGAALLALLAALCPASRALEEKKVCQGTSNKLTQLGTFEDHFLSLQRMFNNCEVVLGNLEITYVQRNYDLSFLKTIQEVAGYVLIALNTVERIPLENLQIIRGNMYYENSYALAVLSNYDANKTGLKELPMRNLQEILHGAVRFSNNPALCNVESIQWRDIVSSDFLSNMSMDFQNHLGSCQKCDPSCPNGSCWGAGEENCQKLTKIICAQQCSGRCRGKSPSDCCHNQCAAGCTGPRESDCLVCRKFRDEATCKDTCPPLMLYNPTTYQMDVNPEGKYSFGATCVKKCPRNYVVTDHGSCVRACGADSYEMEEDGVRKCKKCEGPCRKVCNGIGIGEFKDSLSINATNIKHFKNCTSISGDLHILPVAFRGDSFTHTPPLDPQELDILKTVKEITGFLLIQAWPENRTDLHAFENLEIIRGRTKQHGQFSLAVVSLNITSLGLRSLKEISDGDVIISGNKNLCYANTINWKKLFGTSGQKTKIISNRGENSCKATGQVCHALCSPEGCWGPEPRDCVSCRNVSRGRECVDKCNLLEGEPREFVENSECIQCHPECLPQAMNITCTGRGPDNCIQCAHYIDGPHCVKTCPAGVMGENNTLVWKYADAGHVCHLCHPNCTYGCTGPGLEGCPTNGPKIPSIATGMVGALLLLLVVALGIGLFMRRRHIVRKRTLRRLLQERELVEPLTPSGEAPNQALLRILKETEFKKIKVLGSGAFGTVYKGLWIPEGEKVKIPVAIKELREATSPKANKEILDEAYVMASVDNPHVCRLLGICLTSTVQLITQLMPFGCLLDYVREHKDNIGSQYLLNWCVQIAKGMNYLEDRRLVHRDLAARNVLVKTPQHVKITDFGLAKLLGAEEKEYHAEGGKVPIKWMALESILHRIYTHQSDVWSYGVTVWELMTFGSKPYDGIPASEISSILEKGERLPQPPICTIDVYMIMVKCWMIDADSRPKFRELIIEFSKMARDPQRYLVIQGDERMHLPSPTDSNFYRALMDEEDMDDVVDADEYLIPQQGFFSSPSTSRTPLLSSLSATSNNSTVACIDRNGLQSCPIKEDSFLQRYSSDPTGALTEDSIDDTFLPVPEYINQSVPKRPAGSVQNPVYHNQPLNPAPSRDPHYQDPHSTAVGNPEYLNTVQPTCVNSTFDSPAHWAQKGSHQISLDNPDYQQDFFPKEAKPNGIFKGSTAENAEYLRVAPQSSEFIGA

Compound	IC50 (A549; Homo sapiens, A549, 48 h) [µM]	IC50 [1] [µM]	IC50 (HCC827; Homo sapiens, HCC827, 48 h) [µM]	IC50 [2] [µM]	IC50 (A-431; Homo sapiens, A-431, 48 h) [µM]	IC50 [3] [µM]	IC50 (NCI-H1975; Homo sapiens, NCI-H1975, 48 h) [µM]	IC50 (L02) [µM]	IC50 (A-431; a-431) [µM]	IC50 (A549; a549) [µM]	IC50 (HCC827; hcc827) [µM]	IC50 (NCI-H1975; nci-h1975) [µM]
O=C(O)C1CCC2(CC1)OOC1(OO2)C2CC3CC(C2)CC1C3 (stereo unspecified)	> 100	> 10	> 50	> 10	> 100	> 10	> 50	> 100				
O=C(Nc1ccc2ncnc(Nc3cccc(Cl)c3)c2c1)C1CCCCC1	6.36	0.00613	2.55	0.00696	> 50	> 10	41.8	> 50				
O=C(Nc1ccc2ncnc(Nc3cccc(Cl)c3)c2c1)C1CCC2(CC1)OOC1(O2)C2CC3CC(C2)CC1C3 (stereo unspecified)	8.45	0.0324	2.29	0.0489	31.5	> 10	13	18.2				
O=C(Nc1ccc2nccc(Nc3cccc(Cl)c3)c2c1)C1CCC2(CC1)OOC1(O2)C2CC3CC(C2)CC1C3 (stereo in doubt; 13)	25.3	0.178	12	0.236		> 10	33.4	25.5	> 50			
O=C(Nc1ccc2ncnc(Nc3cccc(Cl)c3)c2c1)C1CCC2(CC1)OCC1(OO2)C2CC3CC(C2)CC1C3 (stereo in doubt; 8)		0.117		0.175					23.1	24.7	10.7	48.5
O=C(Nc1ccc2ncnc(Nc3cccc(Cl)c3)c2c1)C1CCC2(CC1)OCC1(OO2)C2CC3CC(C2)CC1C3 (stereo in doubt; 7)	18	0.0947		0.112	22	> 10		> 100			5.09	21.3
